The values that follow come from ChEMBL document CHEMBL4033769, “Simple Tetrahydroisoquinolines Are Potent and Selective Kappa Opioid Receptor Antagonists” (ACS Med Chem Lett, 2017).

The target in assay [1] is Kappa-type opioid receptor (Homo sapiens) (UniProt P41145). Description: Agonist activity at human kappa-opioid receptor expressed in CHO cell membranes assessed as induction of [35S]GTPgammaS binding at 10 uM after 60 mins by scintillation counting method. The format is functional. (In general: GTPγS is a poorly hydrolysed GTP analogue; its binding reports G protein activation.)
Kappa-type opioid receptor (Homo sapiens), sequence (P41145 whole entry): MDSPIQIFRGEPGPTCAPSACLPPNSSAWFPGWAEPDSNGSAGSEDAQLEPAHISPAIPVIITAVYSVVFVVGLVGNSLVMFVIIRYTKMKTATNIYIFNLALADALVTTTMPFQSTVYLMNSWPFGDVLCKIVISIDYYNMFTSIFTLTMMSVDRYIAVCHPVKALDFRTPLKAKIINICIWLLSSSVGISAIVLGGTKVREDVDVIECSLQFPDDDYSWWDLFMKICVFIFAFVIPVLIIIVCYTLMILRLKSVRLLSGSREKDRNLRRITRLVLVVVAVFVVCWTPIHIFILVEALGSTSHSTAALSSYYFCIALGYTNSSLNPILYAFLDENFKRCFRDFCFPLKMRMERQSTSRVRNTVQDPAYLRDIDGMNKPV

In assay [2] the target is Delta-type opioid receptor (Homo sapiens) (UniProt P41143). Description: Agonist activity at human delta-opioid receptor expressed in CHO cell membranes assessed as induction of [35S]GTPgammaS binding at 10 uM after 60 mins by scintillation counting method. Format: functional.
Delta-type opioid receptor (Homo sapiens), sequence (P41143 whole entry): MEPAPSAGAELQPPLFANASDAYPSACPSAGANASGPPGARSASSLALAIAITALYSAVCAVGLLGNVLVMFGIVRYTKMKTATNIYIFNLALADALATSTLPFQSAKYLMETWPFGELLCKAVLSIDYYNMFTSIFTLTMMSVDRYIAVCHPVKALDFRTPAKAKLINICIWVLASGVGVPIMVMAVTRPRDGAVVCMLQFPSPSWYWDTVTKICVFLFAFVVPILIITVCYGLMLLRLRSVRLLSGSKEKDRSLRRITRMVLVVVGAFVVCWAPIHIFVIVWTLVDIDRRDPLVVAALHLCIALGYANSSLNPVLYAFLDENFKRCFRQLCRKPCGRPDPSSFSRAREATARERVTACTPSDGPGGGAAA
Assay [3] concerns the target Mu-type opioid receptor (Homo sapiens) (UniProt P35372). Description: Agonist activity at human mu-opioid receptor expressed in CHO cell membranes assessed as induction of [35S]GTPgammaS binding at 10 uM after 60 mins by scintillation counting method. Format: functional.
The target in assay [4] is Delta-type opioid receptor (Homo sapiens) (UniProt P41143).
Description: Antagonist activity at human delta-opioid receptor expressed in CHO cell membranes assessed as inhibition of DPDPE agonist-induced [35S]GTPgammaS binding after 60 mins by scintillation counting method

Calls of active or inactive are those of the source. No cut-off for these calls is given here.

Mu-type opioid receptor (Homo sapiens), sequence (P35372 whole entry): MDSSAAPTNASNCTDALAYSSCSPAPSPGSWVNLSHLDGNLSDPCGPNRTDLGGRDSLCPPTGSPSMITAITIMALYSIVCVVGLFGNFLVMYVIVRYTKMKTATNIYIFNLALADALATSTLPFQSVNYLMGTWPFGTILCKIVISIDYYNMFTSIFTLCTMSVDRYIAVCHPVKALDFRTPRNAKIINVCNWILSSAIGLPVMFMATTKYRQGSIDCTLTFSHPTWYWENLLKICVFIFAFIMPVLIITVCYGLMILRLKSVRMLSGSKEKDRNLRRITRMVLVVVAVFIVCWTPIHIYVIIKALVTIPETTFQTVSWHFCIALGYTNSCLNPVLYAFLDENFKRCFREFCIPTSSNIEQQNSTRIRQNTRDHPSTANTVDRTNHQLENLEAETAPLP

For the molecule `CC(C)[C@@H](CC1CCCCC1)NC(=O)[C@H]1Cc2ccc(O)cc2CN1`, the result in assay [1], in assay [2] and in assay [3] was inactive. In addition, the Ke in assay [4] is 640 nM.

Turning to `CC(C)[C@@H](CN1CCCCC1)NC(=O)[C@H]1Cc2ccc(O)cc2CN1`, the outcome in assay [1], in assay [2] and in assay [3] was inactive.
